# Experimental data taken from patent publication US20260226068A1, “IMIDAZOTRIAZINE IL-17A MODULATORS AND USES THEREOF” (DICE ALPHA, INC., priority 2023, published 2026).
# How the values were obtained:
# IL-17A/A = target: T1, IL-17A/A (Homo sapiens, UniProt Q16552); test: IL-17A/A HEK-Blue cell assay (SEAP reporter); assay type: cell-based; conditions: HEK-Blue IL-17A reporter cells, IL17A/A 5 ng/mL, 20 hours, SEAP read at A630; read-out: HEK-Blue IL17AA (IC50 for IL-17A/A inhibition)
# T1 construct: purchased Genscript Z03228
# T1 sequence (Q16552 24-155): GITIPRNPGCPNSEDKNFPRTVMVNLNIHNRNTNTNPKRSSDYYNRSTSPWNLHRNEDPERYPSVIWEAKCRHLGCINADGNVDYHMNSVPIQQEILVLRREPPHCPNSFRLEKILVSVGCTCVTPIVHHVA
# IL-17A/F = target: T2, IL-17A/F (Homo sapiens, UniProt Q16552+Q96PD4); test: IL-17A/F HEK-Blue cell assay (SEAP reporter); assay type: cell-based; conditions: HEK-Blue IL-17A reporter cells, IL17A/F 5 ng/mL, 20 hours, SEAP read at A630; read-out: HEK-Blue IL17AF (IC50 for IL-17A/F inhibition)
# T2 construct: purchased R&D Systems
# T2 sequence (Q16552 24-155): T1 sequence (Q16552 24-155)
# T2 sequence (Q96PD4 31-163): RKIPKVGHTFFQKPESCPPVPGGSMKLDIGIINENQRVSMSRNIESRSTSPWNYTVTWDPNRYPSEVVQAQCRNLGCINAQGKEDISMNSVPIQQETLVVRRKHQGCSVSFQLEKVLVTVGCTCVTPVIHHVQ
compound,measurement,setting,value
"CCn1nccc1C(=O)N[C@H](c1cn2nc(C[C@H]3C[C@@H](C(F)(F)F)CNC3=O)c(CCOC)nc2n1)C1CCC(F)(F)CC1 [Compound 276, N—((S)-(4,4-difluorocyclohexyl)(3-(2-methoxyethyl)-2-(((3R,5R)-2-oxo-5-(trifluoromethyl)piperidin-3-yl)methyl)imidazo[1,2-b][1,2,4]triazin-6-yl)methyl)-1-ethyl-1H-pyrazole-5-carboxamide]",IC50,IL-17A/A,< 100 nM
same,IC50,IL-17A/F,100 to 1000 nM
"Cn1nccc1C(=O)N[C@H](c1cn2nc(C[C@H]3C[C@@H](C(F)(F)F)CNC3=O)c(C3CCOCC3)nc2n1)[C@@H]1CCCC(F)(F)C1 [Compound 277, N—((S)—((R)-3,3-difluorocyclohexyl)(2-(((3R,5R)-2-oxo-5-(trifluoromethyl)piperidin-3-yl)methyl)-3-(tetrahydro-2H-pyran-4-yl)imidazo[1,2-b][1,2,4]triazin-6-yl)methyl)-1-methyl-1H-pyrazole-5-carboxamide]",IC50,IL-17A/A,< 100 nM
same,IC50,IL-17A/F,100 to 1000 nM
"Cn1nccc1C(=O)N[C@H](c1cn2nc(C[C@H]3C[C@@H](C(F)(F)F)CNC3=O)c(C3CCOCC3)nc2n1)[C@H]1CCCC(F)(F)C1 [Compound 278, N—((S)—((S)-3,3-difluorocyclohexyl)(2-(((3R,5R)-2-oxo-5-(trifluoromethyl)piperidin-3-yl)methyl)-3-(tetrahydro-2H-pyran-4-yl)imidazo[1,2-b][1,2,4]triazin-6-yl)methyl)-1-methyl-1H-pyrazole-5-carboxamide]",IC50,IL-17A/A,< 100 nM
same,IC50,IL-17A/F,100 to 1000 nM
CCn1nccc1C(=O)N[C@H](c1cn2nc(C[C@H]3CC(F)(F)CNC3=O)c(C3CCOCC3)nc2n1)C1CCC(F)(F)CC1 [Compound 279],IC50,IL-17A/A,< 100 nM
same,IC50,IL-17A/F,> 1000 nM
"Cn1nccc1C(=O)N[C@H](c1cn2nc(C[C@H]3C[C@@H](C(F)(F)F)CNC3=O)c(C3(C)CCOCC3)nc2n1)C1CCC(F)(F)CC1 [Compound 280, N—((S)-(4,4-difluorocyclohexyl)(3-(4-methyltetrahydro-2H-pyran-4-yl)-2-(((3R,5R)-2-oxo-5-(trifluoromethyl)piperidin-3-yl)methyl)imidazo[1,2-b][1,2,4]triazin-6-yl)methyl)-1-methyl-1H-pyrazole-5-carboxamide]",IC50,IL-17A/A,< 100 nM
same,IC50,IL-17A/F,> 1000 nM
CCn1nccc1C(=O)N[C@H](c1cn2nc(C[C@H]3C[C@@H](C(F)(F)F)CC3=O)c(C3CCOCC3)nc2n1)C(C1CC1)C1CC1 [Compound 281],IC50,IL-17A/A,< 100 nM
same,IC50,IL-17A/F,100 to 1000 nM
"CCn1nccc1C(=O)N[C@H](c1cn2nc(C[C@H]3C[C@@H](C(F)(F)F)CNC3=O)c(N3CCO[C@H](C)C3)nc2n1)C1CCC(F)(F)CC1 [Compound 282, N—((S)-(4,4-difluorocyclohexyl)(3-((R)-2-methylmorpholino)-2-(((3R,5R)-2-oxo-5-(trifluoromethyl)piperidin-3-yl)methyl)imidazo[1,2-b][1,2,4]triazin-6-yl)methyl)-1-ethyl-1H-pyrazole-5-carboxamide]",IC50,IL-17A/A,< 100 nM
same,IC50,IL-17A/F,< 100 nM
"CCn1nccc1C(=O)N[C@H](c1cn2nc(C[C@H]3C[C@@H](C(F)(F)F)CNC3=O)c(N3CCO[C@@H](C)C3)nc2n1)C1CCC(F)(F)CC1 [Compound 283, N—((S)-(4,4-difluorocyclohexyl)(3-((S)-2-methylmorpholino)-2-(((3R,5R)-2-oxo-5-(trifluoromethyl)piperidin-3-yl)methyl)imidazo[1,2-b][1,2,4]triazin-6-yl)methyl)-1-ethyl-1H-pyrazole-5-carboxamide]",IC50,IL-17A/A,< 100 nM
same,IC50,IL-17A/F,100 to 1000 nM
"CCn1nccc1C(=O)N[C@H](c1cn2nc(C[C@H]3C[C@@H](C(F)(F)F)CNC3=O)c([C@@H]3CCNC3)nc2n1)C1CCC(F)(F)CC1 [Compound 284, N-((1S)-(4,4-difluorocyclohexyl)(2-(((3R,5R)-2-oxo-5-(trifluoromethyl)piperidin-3-yl)methyl)-3-(pyrrolidin-3-yl)imidazo[1,2-b][1,2,4]triazin-6-yl)methyl)-1-ethyl-1H-pyrazole-5-carboxamide]",IC50,IL-17A/A,100 to 1000 nM
same,IC50,IL-17A/F,> 1000 nM
"CCn1nccc1C(=O)N[C@H](c1cn2nc(C[C@H]3C[C@@H](C(F)(F)F)CNC3=O)c(CNC)nc2n1)C1CCC(F)(F)CC1 [Compound 286, N—((S)-(4,4-difluorocyclohexyl)(3-((methylamino)methyl)-2-(((3R,5R)-2-oxo-5-(trifluoromethyl)piperidin-3-yl)methyl)imidazo[1,2-b][1,2,4]triazin-6-yl)methyl)-1-ethyl-1H-pyrazole-5-carboxamide]",IC50,IL-17A/A,100 to 1000 nM
same,IC50,IL-17A/F,> 1000 nM
"CCn1nccc1C(=O)N[C@H](c1cn2nc(C[C@H]3C[C@@H](C(F)(F)F)CNC3=O)c(CN(C)C)nc2n1)C1CCC(F)(F)CC1 [Compound 287, N—((S)-(4,4-difluorocyclohexyl)(3-((dimethylamino)methyl)-2-(((3R,5R)-2-oxo-5-(trifluoromethyl)piperidin-3-yl)methyl)imidazo[1,2-b][1,2,4]triazin-6-yl)methyl)-1-ethyl-1H-pyrazole-5-carboxamide]",IC50,IL-17A/A,100 to 1000 nM
same,IC50,IL-17A/F,> 1000 nM
"CCn1nccc1C(=O)N[C@H](c1cn2nc(C[C@H]3C[C@@H](C(F)(F)F)CNC3=O)c(CN3CCCCC3)nc2n1)C1CCC(F)(F)CC1 [Compound 288, N—((S)-(4,4-difluorocyclohexyl)(2-(((3R,5R)-2-oxo-5-(trifluoromethyl)piperidin-3-yl)methyl)-3-(piperidin-1-ylmethyl)imidazo[1,2-b][1,2,4]triazin-6-yl)methyl)-1-ethyl-1H-pyrazole-5-carboxamide]",IC50,IL-17A/A,< 100 nM
same,IC50,IL-17A/F,> 1000 nM
"CCn1nccc1C(=O)N[C@H](c1cn2nc(C[C@H]3C[C@@H](C(F)(F)F)CNC3=O)c(C3CCOCC3)nc2n1)C1CCCCCC1 [Compound 289, N—((S)-cycloheptyl(2-(((3R,5R)-2-oxo-5-(trifluoromethyl)piperidin-3-yl)methyl)-3-(tetrahydro-2H-pyran-4-yl)imidazo[1,2-b][1,2,4]triazin-6-yl)methyl)-1-ethyl-1H-pyrazole-5-carboxamide]",IC50,IL-17A/A,< 100 nM
same,IC50,IL-17A/F,< 100 nM
"Cn1nccc1C(=O)N[C@H](c1cn2nc(C[C@H]3C[C@@H](C(F)(F)F)CNC3=O)c(C3CCOCC3)nc2n1)C1CCCCCC1 [Compound 290, N—((S)-cycloheptyl(2-(((3R,5R)-2-oxo-5-(trifluoromethyl)piperidin-3-yl)methyl)-3-(tetrahydro-2H-pyran-4-yl)imidazo[1,2-b][1,2,4]triazin-6-yl)methyl)-1-methyl-1H-pyrazole-5-carboxamide]",IC50,IL-17A/A,< 100 nM
same,IC50,IL-17A/F,< 100 nM
"CCn1nccc1C(=O)N[C@H](c1cn2nc(C[C@H]3C[C@@H](C(F)(F)F)CNC3=O)c(C3CCOCC3)nc2n1)[C@H]1C[C@H]2C[C@H]2C1 [Compound 292, N—((S)-((1R,3r,5S)-bicyclo[3.1.0]hexan-3-yl)(2-(((3R,5R)-2-oxo-5-(trifluoromethyl)piperidin-3-yl)methyl)-3-(tetrahydro-2H-pyran-4-yl)imidazo[1,2-b][1,2,4]triazin-6-yl)methyl)-1-ethyl-1H-pyrazole-5-carboxamide]",IC50,IL-17A/A,< 100 nM
same,IC50,IL-17A/F,> 1000 nM
"CCc1nc2nc([C@@H](NC(=O)c3ccnn3C)C3CCC(F)(F)CC3)cn2nc1C[C@H]1C[C@@H](C(F)(F)F)CNC1=O [Compound 295, N—((S)-(4,4-difluorocyclohexyl)(3-ethyl-2-(((3R,5R)-2-oxo-5-(trifluoromethyl)piperidin-3-yl)methyl)imidazo[1,2-b][1,2,4]triazin-6-yl)methyl)-1-methyl-1H-pyrazole-5-carboxamide]",IC50,IL-17A/A,< 100 nM
same,IC50,IL-17A/F,> 1000 nM
